Measurements reported in patent US9771337B2, “Neprilysin inhibitors” (THERAVANCE BIOPHARMA R&D IP, LLC, priority 2011, dated 2017).

Molecular target: T1, human NEP (Homo sapiens, UniProt P08473)
T1 construct: purchased R&D Systems, Minneapolis, Minn; 1182-ZN
Assay: In vitro enzyme inhibition assay, inhibitor potency at human NEP
Type: biochemical
Settings: pKi values at human NEP; recombinant human NEP, fluorogenic peptide substrate 10 μM, 37° C.
Protocol: The inhibitory activities of compounds at human and rat neprilysin (EC 3.4.24.11; NEP) and human angiotensin converting enzyme (ACE) were determined using in vitro assays as described below.
Recombinant human NEP and recombinant human ACE were obtained commercially (R&D Systems, Minneapolis, Minn., catalog numbers 1182-ZN and 929-ZN, respectively). The fluorogenic peptide substrate Mca-D-Arg-Arg-Leu-Dap-(Dnp)-OH (Medeiros et al. (1997) Braz. J. Med. Biol. Res. 30:1157-62; Anaspec, San Jose, Calif.) and Abz-Phe-Arg-Lys(Dnp)-Pro-OH (Araujo et al. (2000) Biochemistry 39:8519-8525; Bachem, Torrance, Calif.) were used in the NEP and ACE assays respectively.
The assays were performed in 384-well white opaque plates at 37° C. using the fluorogenic peptide substrates at a concentration of 10 μM in Assay Buffer (NEP: 50 mM HEPES, pH 7.5, 100 mM NaCl, 0.01% polyethylene glycol sorbitan monolaurate (Tween-20), 10 μM ZnSO4; ACE: 50 mM HEPES, pH 7.5, 100 mM NaCl, 0.01% Tween-20, 1 μM ZnSO4).
Test compounds were assayed over the range of concentrations from […] to 20 μM. Test compounds were added to the enzymes and incubated for 30 minute at 37° C. prior to initiating the reaction by the addition of substrate. Reactions were terminated after 20 minutes of incubation at 37° C. by the addition of glacial acetic acid to a final concentration of 3.6% (v/v).
Plates were read on a fluorometer with excitation and emission wavelengths set to 320 nm and 405 nm, respectively. Inhibition constants were obtained by nonlinear regression of the data using the equation (GraphPad Software, Inc., San Diego, Calif.): v=v0/[1+(I/K′)] where v is the reaction rate, v0 is the uninhibited reaction rate, I is the inhibitor concentration and K′ is the apparent inhibition constant.
Compounds of the invention were tested in this assay and found to have pKi values at human NEP as follows.

T1 sequence (P08473 whole entry): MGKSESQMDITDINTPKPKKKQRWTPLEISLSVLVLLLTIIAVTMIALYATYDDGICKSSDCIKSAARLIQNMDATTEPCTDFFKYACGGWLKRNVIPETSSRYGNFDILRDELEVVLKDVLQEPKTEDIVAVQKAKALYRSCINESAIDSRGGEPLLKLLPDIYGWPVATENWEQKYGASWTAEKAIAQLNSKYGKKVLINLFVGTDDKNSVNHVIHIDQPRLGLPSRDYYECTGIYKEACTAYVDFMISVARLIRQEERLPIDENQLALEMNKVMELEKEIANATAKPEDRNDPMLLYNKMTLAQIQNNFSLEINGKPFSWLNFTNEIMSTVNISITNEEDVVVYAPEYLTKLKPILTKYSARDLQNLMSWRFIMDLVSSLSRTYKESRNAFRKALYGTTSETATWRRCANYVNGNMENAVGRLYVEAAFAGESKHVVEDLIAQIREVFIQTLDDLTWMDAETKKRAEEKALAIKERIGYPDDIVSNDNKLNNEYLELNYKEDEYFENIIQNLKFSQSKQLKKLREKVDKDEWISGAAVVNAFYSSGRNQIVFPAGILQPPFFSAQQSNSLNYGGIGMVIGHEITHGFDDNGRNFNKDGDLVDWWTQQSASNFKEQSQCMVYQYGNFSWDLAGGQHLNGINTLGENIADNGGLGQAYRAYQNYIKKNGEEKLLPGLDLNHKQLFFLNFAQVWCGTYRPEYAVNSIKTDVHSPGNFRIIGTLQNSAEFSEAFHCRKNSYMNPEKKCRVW

| SMILES | Ki [nM] |
| --- | --- |
| O=C(N[C@H](Cc1ccccc1Cl)[C@H](O)C(=O)O)c1cc(Cl)c2nn[nH]c2c1 [Example 2-28, (2S,3R)-3-[(7-Chloro-3H-benzotriazole-5-carbonyl)-amino]-4-(2-chloro-phenyl)-2-hydroxy-butyric acid] | 1.26 to 10 |
| O=C(N[C@H](Cc1ccccc1Cl)[C@H](O)C(=O)O)c1ccc2nn[nH]c2c1 [Example 2-29, (2S,3R)-3-[(3H-Benzotriazole-5-carbonyl)-amino]-4-(2-chloro-phenyl)-2-hydroxy-butyric acid] | 12.6 to 100 |
| Cc1cc(C(=O)N[C@H](Cc2ccccc2Cl)[C@H](O)C(=O)O)cc2[nH]nnc12 [Example 2-30, (2S,3R)-4-(2-Chloro-phenyl)-2-hydroxy-3-[(7-methyl-3H-benzotriazole-5-carbonyl)-amino]-butyric acid] | 12.6 to 100 |
| O=C(N[C@H](Cc1ccccc1Cl)[C@@H](O)C(=O)O)c1cc(C(=O)O)c2[nH]nnc2c1 [Example 2-31, 6-[(1R,2R)-2-Carboxy-1-(2-chloro-benzyl)-2-hydroxy-ethylcarbamoyl]-3H-benzotriazole-4-carboxylic acid] | 12.6 to 100 |
| O=C(O)c1ccc(C(=O)N[C@H](Cc2ccccc2Cl)[C@@H](O)C(=O)O)o1 [Example 2-32, 5-[(1R,2R)-2-Carboxy-1-(2-chloro-benzyl)-2-hydroxy-ethylcarbamoyl]-furan-2-carboxylic acid] | 12.6 to 100 |
| O=C(N[C@H](Cc1ccccc1Cl)[C@@H](O)C(=O)O)c1ccc2ncc(Br)n2c1 [Example 2-33, (2R,3R)-3-[(3-Bromo-imidazo[1,2-a]pyridine-6-carbonyl)-amino]-4-(2-chloro-phenyl)-2-hydroxy-butyric acid] | 12.6 to 100 |
| O=C(N[C@H](Cc1ccccc1Cl)[C@@H](O)C(=O)O)c1cnc(O)cn1 [Example 2-34, (2R,3R)-4-(2-Chloro-phenyl)-2-hydroxy-3-[(5-hydroxy-pyrazine-2-carbonyl)-amino]-butyric acid] | 12.6 to 100 |
| O=C(N[C@H](Cc1ccccc1Cl)[C@@H](O)C(=O)O)c1cnc(O)nc1 [Example 2-35, (2R,3R)-4-(2-Chloro-phenyl)-2-hydroxy-3-[(2-hydroxy-pyrimidine-5-carbonyl)-amino]-butyric acid] | ≤ 1 |
| O=C(N[C@H](Cc1ccccc1Cl)[C@@H](O)C(=O)O)c1cnc2[nH]cnc2c1 [Example 2-36, (2R,3R)-4-(2-Chloro-phenyl)-2-hydroxy-3-[(3H-imidazo[4,5-b]pyridine-6-carbonyl)-amino]-butyric acid] | 12.6 to 100 |
| O=C(N[C@H](Cc1ccccc1Cl)[C@@H](O)C(=O)O)c1cnc2nn[nH]c2c1 [Example 2-37, (2R,3R)-4-(2-Chloro-phenyl)-2-hydroxy-3-[(1H-[1,2,3]triazolo[4,5-b]pyridine-6-carbonyl)-amino]-butyric acid] | 1.26 to 10 |
| O=C1CCC(C(=O)N[C@H](Cc2ccccc2Cl)[C@@H](O)C(=O)O)=NN1 [Example 2-39, (2R,3R)-4-(2-Chloro-phenyl)-2-hydroxy-3-[(6-oxo-1,4,5,6-tetrahydro-pyridazine-3-carbonyl)-amino]-butyric acid] | 12.6 to 100 |
| O=C(N[C@H](Cc1ccccc1C(F)(F)F)[C@@H](O)C(=O)O)c1cnc2[nH]nnc2c1 [Example 3, (2R,3R)-2-Hydroxy-3-[(3H-[1,2,3]triazolo[4,5-b]pyridine-6-carbonyl)-amino]-4-(2-trifluoromethyl-phenyl)-butyric acid] | 1.26 to 10 |
| O=C(N[C@H](Cc1ccccc1)[C@@H](O)C(=O)O)c1ccc2c(c1)N1CCCC1C(=O)N2 (stereo partly drawn) [Example 5-1, (2R,3R)-2-Hydroxy-3-[(4-oxo-1,2,3,3a,4,5-hexahydro-pyrrolo[1,2-a]quinoxaline-8-carbonyl)-amino]-4-phenyl-butyric acid] | 12.6 to 100 |
| CCCc1nc2c(C)cc(C(=O)N[C@H](Cc3ccccc3)[C@@H](O)C(=O)O)cc2n1Cc1ccc(Br)nc1 [Example 5-2, (2R,3R)-3-{[3-(6-Bromo-pyridin-3-ylmethyl)-7-methyl-2-propyl-3H-benzoimidazole-5-carbonyl]-amino}-2-hydroxy-4-phenyl-butyric acid] | 12.6 to 100 |
| CCCc1nc2c(C)cc(C(=O)N[C@H](Cc3ccccc3)[C@@H](O)C(=O)O)cc2n1Cc1cccnc1 [Example 5-3, (2R,3R)-2-Hydroxy-3-[(7-methyl-2-propyl-3-pyridin-3-ylmethyl-3H-benzoimidazole-5-carbonyl)-amino]-4-phenyl-butyric acid] | 12.6 to 100 |

Further lines, results first:

| Ki [nM] | SMILES |
| --- | --- |
| 12.6 to 100 | CCCc1nc2c(C)cc(C(=O)N[C@H](Cc3ccccc3)[C@@H](O)C(=O)O)cc2n1CC(=O)O [Example 5-5, (2R,3R)-3-[(3-Carboxymethyl-7-methyl-2-propyl-3H-benzoimidazole-5-carbonyl)-amino]-2-hydroxy-4-phenyl-butyric acid] |
| 12.6 to 100 | CCCc1nc2c(C)cc(C(=O)N[C@H](Cc3ccccc3)[C@@H](O)C(=O)O)cc2n1Cc1ccccc1OC [Example 5-6, (2R,3R)-2-Hydroxy-3-{[3-(2-methoxy-benzyl)-7-methyl-2-propyl-3H-benzoimidazole-5-carbonyl]-amino}-4-phenyl-butyric acid] |
| 12.6 to 100 | CCCc1nc2c(C)cc(C(=O)N[C@H](Cc3ccccc3)[C@@H](O)C(=O)O)cc2n1Cc1ccc(OC)cc1 [Example 5-7, (2R,3R)-2-Hydroxy-3-{[3-(4-methoxy-benzyl)-7-methyl-2-propyl-3H-benzoimidazole-5-carbonyl]-amino}-4-phenyl-butyric acid] |
| 12.6 to 100 | CCCc1nc2c(C)cc(C(=O)N[C@H](Cc3ccccc3)[C@@H](O)C(=O)O)cc2n1CC(N)=O [Example 5-8, (2R,3R)-3-[(3-Carbamoylmethyl-7-methyl-2-propyl-3H-benzoimidazole-5-carbonyl)-amino]-2-hydroxy-4-phenyl-butyric acid] |
| 12.6 to 100 | CCc1nc2c(Cl)cc(C(=O)N[C@H](Cc3ccccc3)[C@@H](O)C(=O)O)cc2[nH]1 [Example 5-9, (2R,3R)-3-[(7-Chloro-2-ethyl-3H-benzoimidazole-5-carbonyl)-amino]-2-hydroxy-4-phenyl-butyric acid] |
| 12.6 to 100 | O=C(N[C@H](Cc1ccccc1)[C@@H](O)C(=O)O)c1ccc2nn[nH]c2c1 [Example 5-11, (2R,3R)-3-[(3H-Benzotriazole-5-carbonyl)-amino]-2-hydroxy-4-phenyl-butyric acid] |
| 12.6 to 100 | O=C(N[C@H](Cc1ccccc1)[C@@H](O)C(=O)O)c1cc(Cl)c2nn[nH]c2c1 [Example 5-13, (2R,3R)-3-[(7-Chloro-3H-benzotriazole-5-carbonyl)-amino]-2-hydroxy-4-phenyl-butyric acid] |
| 12.6 to 100 | Cc1cc(C(=O)N[C@H](Cc2ccccc2)[C@@H](O)C(=O)O)cc2[nH]nnc12 [Example 5-15, (2R,3R)-2-Hydroxy-3-[(7-methyl-3H-benzotriazole-5-carbonyl)-amino]-4-phenyl-butyric acid] |
| 12.6 to 100 | O=C(N[C@H](Cc1ccccc1)[C@@H](O)C(=O)O)c1cc(F)c2[nH]nnc2c1 [Example 5-16, (2R,3R)-3-[(7-Fluoro-1H-benzotriazole-5-carbonyl)-amino]-2-hydroxy-4-phenyl-butyric acid] |
| 12.6 to 100 | O=C(O)c1cnc(C(=O)N[C@H](Cc2ccccc2)[C@@H](O)C(=O)O)cn1 [Example 5-18, 5-((1R,2R)-1-Benzyl-2-carboxy-2-hydroxy-ethylcarbamoyl)-pyrazine-2-carboxylic acid] |
| 12.6 to 100 | O=C(N[C@H](Cc1ccccc1)[C@@H](O)C(=O)O)c1cnc(-c2ccccc2C(=O)O)cn1 [Example 5-19, 2-[5-((1R,2R)-1-Benzyl-2-carboxy-2-hydroxy-ethylcarbamoyl)-pyrazin-2-yl]-benzoic acid] |
| 12.6 to 100 | O=C(N[C@H](Cc1ccccc1)[C@@H](O)C(=O)O)c1ccc(C(=O)O)nc1 [Example 5-20, 5-((1R,2R)-1-Benzyl-2-carboxy-2-hydroxy-ethylcarbamoyl)-pyridine-2-carboxylic acid] |
| 1.26 to 10 | O=C(N[C@H](Cc1ccccc1)[C@@H](O)C(=O)O)c1ccc(-c2ccccc2C(=O)O)nc1 [Example 5-21, 2-[5-((1R,2R)-1-Benzyl-2-carboxy-2-hydroxy-ethylcarbamoyl)-pyridin-2-yl]-benzoic acid] |
| 1.26 to 10 | O=C(N[C@H](Cc1ccccc1)[C@@H](O)C(=O)O)c1ccnc(-c2ccccc2C(=O)O)c1 [Example 5-22, 2-[4-((1R,2R)-1-Benzyl-2-carboxy-2-hydroxy-ethylcarbamoyl)-pyridin-2-yl]-benzoic acid] |
| 12.6 to 100 | O=C(N[C@H](Cc1ccccc1)[C@@H](O)C(=O)O)c1ccc(-c2ccccc2C(=O)O)cn1 [Example 5-24, 2-[6-((1R,2R)-1-Benzyl-2-carboxy-2-hydroxy-ethylcarbamoyl)-pyridin-3-yl]-benzoic acid] |
